Experimental findings from ChEMBL document CHEMBL3822432, “Antibacterial and anticancer activity of a series of novel peptides incorporating cyclic tetra-substituted C(α) amino acids” (Bioorg Med Chem, 2016) are described below.

In brackets after ≈: the same amount, converted by molar mass. Non-standard residues stand in square brackets, D forms with d. Residues, ends and D or L forms follow the SMILES beside them. Ac6c = NC1(C(=O)O)CCCCC1; Ac5c = NC1(C(=O)O)CCCC1

In one assay the test system is Klebsiella aerogenes. Nature of the assay: Antibacterial activity against carbapenem-resistant Enterobacter aerogenes NCDC819-56 ATCC 13048 by two fold serial dilution method. The format is functional.
For the next assay, the system named is Acinetobacter baumannii. Nature of the assay: Antibacterial activity against Acinetobacter baumannii B5W71 ATCC 15149 by two fold serial dilution method. The format is functional.
Assay [1] can be described thus: Antibacterial activity against Salmonella enterica LT2 Typhimurium ATCC 15277 by two fold serial dilution method. The assay is classed as functional.
The next assay deals with Pseudomonas aeruginosa. The assay is described as follows: Antibacterial activity against Pseudomonas aeruginosa Boston 41501 ATCC 27853 by two fold serial dilution method. The assay is classed as functional.
Assay [2] is described as follows: Antibacterial activity against carbapenem-resistant Klebsiella pneumoniae K6 ATCC 700603 by two fold serial dilution method. The assay is classed as functional, Klebsiella pneumoniae 700603.
A further assay relates to Enterococcus faecalis. Nature of the assay: Antibacterial activity against Enterococcus faecalis Portland ATCC 29212 by two fold serial dilution method. The assay is classed as functional. To be noted: ATCC 29212 Portland.
Assay [3] deals with Staphylococcus aureus. The assay is described as follows: Antibacterial activity against methicillin-resistant Staphylococcus aureus USA 300 NRS 384 by two fold serial dilution method. The assay is classed as functional.
The nature of assay [4]: Antibacterial activity against Clostridium difficile VIP 10463 ATCC 43255 by two fold serial dilution method. The settings on record: Clostridioides difficile. The format is functional, Clostridium difficile ATCC 43255.
Assay [5] deals with Staphylococcus aureus. The assay is described as follows: Antibacterial activity against Staphylococcus aureus Seattle 1945 ATCC 25923 by two fold serial dilution method. The format is functional.
The test system of the next assay is Streptococcus pneumoniae. Nature of the assay: Antibacterial activity against Streptococcus pneumoniae 262 ATCC 49619 by two fold serial dilution method. The format is functional.
Another assay deals with Neisseria gonorrhoeae. The assay is described as follows: Antibacterial activity against Neisseria gonorrhoeae F-18 ATCC 49226 by two fold serial dilution method. The assay is classed as functional.
Assay [6] in a line: Antibacterial activity against Bacillus anthracis Ames NR-3838 by two fold serial dilution method. The format is functional, Bacillus anthracis str. Ames.
Assay [7] is described as follows: Antibacterial activity against Francisella tularensis SCHU S4 NR-643 by two fold serial dilution method. The format is functional.
Assay [8] is described as follows: Antibacterial activity against Yersinia pestis CO92 NR641 by two fold serial dilution method. The format is functional.
In assay [9] the test system is Burkholderia pseudomallei. Nature of the assay: Antibacterial activity against Burkholderia pseudomallei AHS 1 NCTC 8016 by two fold serial dilution method. The assay is classed as functional.
Assay [10] has as its system Mycobacterium tuberculosis. The assay is described as follows: Antibacterial activity against Mycobacterium tuberculosis H37Ra ATCC 2517 by two fold serial dilution method. The format is functional.
The subject of the next assay is CFPAC-1. Nature of the assay: Antiproliferative activity against human CFPAC-1 cells after 72 hrs by Celltiter-Glo luminescent cell viability assay. To be noted: CFPAC-1, 72 h. The format is functional, cell-based. (ATP-based viability assays read luminescence as a measure of living cells.)
Another assay relates to MCF7. Nature of the assay: Antiproliferative activity against human MCF7 cells after 72 hrs by Celltiter-Glo luminescent cell viability assay. The assay is classed as functional, cell-based. The settings on record: MCF7, 72 h.
Assay [11] in a line: Antiproliferative activity against human IGROV1 cells after 72 hrs by Celltiter-Glo luminescent cell viability assay. To be noted: IGROV-1, 72 h. The format is functional, cell-based.
The nature of assay [12]: Antiproliferative activity against human COLO205 cells after 72 hrs by Celltiter-Glo luminescent cell viability assay. The format is functional, cell-based. To be noted: COLO 205, 72 h.
Assay [13] in a line: Antiproliferative activity against human DLD1 cells after 72 hrs by Celltiter-Glo luminescent cell viability assay. The format is functional, cell-based. The settings on record: DLD-1, 72 h.
A short description of assay [14]: Antiproliferative activity against human UACC62 cells after 72 hrs by Celltiter-Glo luminescent cell viability assay. The settings on record: UACC-62, 72 h. The assay is classed as functional, cell-based.
Assay [15] can be described thus: Antiproliferative activity against human MIAPaCa2 cells after 72 hrs by Celltiter-Glo luminescent cell viability assay. The format is functional, cell-based. The settings on record: MIA PaCa-2, 72 h.
In another assay the test system is A498. The assay is described as follows: Antiproliferative activity against human A498 cells after 72 hrs by Celltiter-Glo luminescent cell viability assay. The assay is classed as functional, cell-based. To be noted: A498, 72 h.
The nature of assay [16]: Antiproliferative activity against human PC3 cells after 72 hrs by Celltiter-Glo luminescent cell viability assay. To be noted: PC-3, 72 h. The format is functional, cell-based.
In a further assay the test system is A549. Nature of the assay: Antiproliferative activity against human A549 cells after 72 hrs by Celltiter-Glo luminescent cell viability assay. The assay is classed as functional, cell-based. To be noted: A549, 72 h.
The test system of the next assay is NCI-H69. The assay is described as follows: Antiproliferative activity against human NCI-H69 cells after 72 hrs by Celltiter-Glo luminescent cell viability assay. The assay is classed as functional, cell-based. The settings on record: NCI-H69, 72 h.
The next assay deals with RL. The assay is described as follows: Antiproliferative activity against human RL cells after 72 hrs by Celltiter-Glo luminescent cell viability assay. The format is functional, cell-based.

As usually defined, the MIC is the lowest concentration found to suppress growth. High values mean weaker potency, low ones greater potency. The IC50 is the concentration that gives 50% inhibition. Higher therefore signals weaker potency. Consider `CC(=O)NCC(=O)N[C@@H](Cc1ccccc1)C(=O)NC1(C(=O)NCC(=O)NC2(C(=O)N[C@@H](CCCCN)C(=O)N[C@@H](CCCCN)C(=O)NC3(C(=O)NCC(=O)NC4(C(=O)N[C@@H](Cc5ccccc5)C(=O)NC5(C(=O)NCC(=O)NC6(C(=O)NCC(=O)N[C@@H](CCCCN)C(=O)N[C@@H](CCCCN)C(=O)NC7(C(=O)N[C@@H](CCCCN)C(=O)N[C@@H](CCCCN)C(=O)N[C@@H](CCCCN)C(=O)N[C@@H](CCCCN)C(N)=O)CCCCC7)CCCCC6)CCCCC5)CCCCC4)CCCCC3)CCCCC2)CCCCC1` (Ac-GF[Ac6c]G[Ac6c]KK[Ac6c]G[Ac6c]F[Ac6c]G[Ac6c]GKK[Ac6c]KKKK-NH2), for which the minimal inhibitory concentration (MIC) was above 39 µM against Klebsiella aerogenes; 2.46 µM (≈ 6.25 µg/mL) in the assay on Acinetobacter baumannii; 2.46 µM (≈ 6.25 µg/mL) in assay [1]; 2.46 µM (≈ 6.25 µg/mL) against Pseudomonas aeruginosa; 19.7 µM (≈ 50 µg/mL) in assay [2]; 19.7 µM (≈ 50 µg/mL) against Enterococcus faecalis. The MIC against Staphylococcus aureus [3] amounted to 39.4 µM (≈ 100 µg/mL); in [4], 2.46 µM (≈ 6.25 µg/mL); in the assay with Staphylococcus aureus [5], 19.7 µM (≈ 50 µg/mL); in the assay on Streptococcus pneumoniae, 39.4 µM (≈ 100 µg/mL); in the assay with Neisseria gonorrhoeae, 0.61 µM (≈ 1.55 µg/mL); in [6], 2.46 µM (≈ 6.25 µg/mL). Besides, the MIC in assay [7] was 19.7 µM (≈ 50 µg/mL); in assay [8], above 39 µM; in assay [9], above 39 µM; in assay [10] it was 4.92 µM (≈ 12.5 µg/mL). For the same compound, the IC50 in the assay with CFPAC-1 is above 7.5 µM; in the assay with MCF7 it was 6.2 µM; in assay [11], above 7.5 µM; in [12], 5.4 µM; in assay [13], above 7.5 µM; in [14], 2.6 µM. The IC50 is 7.3 µM in assay [15]; 3 µM in the assay on A498; above 7.5 µM in [16]; 7.2 µM with A549; 1.9 µM with NCI-H69; 2 µM with RL.
Turning to `CC(=O)NCC(=O)N[C@@H](Cc1ccccc1)C(=O)NC1(C(=O)NCC(=O)NC2(C(=O)N[C@@H](CCCNC(=N)N)C(=O)NC3(C(=O)NCC(=O)NC4(C(=O)N[C@@H](Cc5ccccc5)C(=O)NC5(C(=O)NCC(=O)NC6(C(=O)NCC(=O)N[C@@H](CCCNC(=N)N)C(=O)NC7(C(=O)N[C@@H](CCCNC(=N)N)C(=O)N[C@@H](CCCNC(=N)N)C(=O)N[C@@H](CCCNC(=N)N)C(=O)N[C@@H](CCCNC(=N)N)C(N)=O)CCCC7)CCCC6)CCCC5)CCCC4)CCCC3)CCCC2)CCCC1` (Ac-GF[Ac5c]G[Ac5c]R[Ac5c]G[Ac5c]F[Ac5c]G[Ac5c]GR[Ac5c]RRRR-NH2), the MIC against Klebsiella aerogenes is above 42.4 µM; in the assay on Acinetobacter baumannii it was 2.65 µM (≈ 6.24 µg/mL); in assay [1], 42.4 µM (≈ 99.9 µg/mL); against Pseudomonas aeruginosa, 2.65 µM (≈ 6.24 µg/mL); in [2] it was 5.31 µM (≈ 12.5 µg/mL); in the assay on Enterococcus faecalis, 5.31 µM (≈ 12.5 µg/mL). The MIC was 5.31 µM (≈ 12.5 µg/mL) in the assay on Staphylococcus aureus [3]; 5.31 µM (≈ 12.5 µg/mL) in assay [4]; 2.65 µM (≈ 6.24 µg/mL) against Staphylococcus aureus [5]; above 43 µM against Streptococcus pneumoniae; 5.31 µM (≈ 12.5 µg/mL) in the assay on Neisseria gonorrhoeae; 2.65 µM (≈ 6.24 µg/mL) in assay [6]. Also, the MIC in [7] is 21.2 µM (≈ 49.9 µg/mL); in assay [8], above 43 µM; in assay [9], above 43 µM; in assay [10], 21.2 µM (≈ 49.9 µg/mL). Also, the IC50 (in the assay on CFPAC-1; in the assay with MCF7; in [11]; in [12]; in assay [13]; in assay [14]) was above 7.5 µM each time. Besides, the IC50 in assay [15] is above 7.5 µM; with A498 it was above 7.5 µM; in assay [16], above 7.5 µM; in the assay on A549, above 7.5 µM; with NCI-H69, 7.1 µM; in the assay with RL, 3.7 µM.
`C[C@H]1c2cccc(O)c2C(=O)C2=C(O)[C@]3(O)C(=O)C(C(N)=O)=C(O)[C@@H](N(C)C)[C@@H]3[C@@H](O)[C@@H]21` [DOXYCYCLINE]: the results for the MIC in assay [6], in assay [7] and in [8] were 0.87 µM (≈ 0.387 µg/mL), 1.1 µM (≈ 0.489 µg/mL) and 1.1 µM (≈ 0.489 µg/mL), respectively.
Consider `CC(=O)NCC(=O)N[C@@H](Cc1ccccc1)C(=O)NC1(C(=O)NCC(=O)NC2(C(=O)N[C@@H](CCCNC(=N)N)C(=O)NC3(C(=O)NCC(=O)NC4(C(=O)N[C@@H](Cc5ccccc5)C(=O)NC5(C(=O)NCC(=O)NC6(C(=O)NCC(=O)N[C@@H](CCCNC(=N)N)C(=O)NC7(C(=O)N[C@@H](CCCNC(=N)N)C(=O)N[C@@H](CCCNC(=N)N)C(=O)N[C@@H](CCCNC(=N)N)C(=O)N[C@@H](CCCNC(=N)N)C(N)=O)CCCCC7)CCCCC6)CCCCC5)CCCCC4)CCCCC3)CCCCC2)CCCCC1` (Ac-GF[Ac6c]G[Ac6c]R[Ac6c]G[Ac6c]F[Ac6c]G[Ac6c]GR[Ac6c]RRRR-NH2), for which the MIC with Klebsiella aerogenes is 2.55 µM (≈ 6.25 µg/mL); with Acinetobacter baumannii it was 2.55 µM (≈ 6.25 µg/mL); in assay [1] it was 5.09 µM (≈ 12.5 µg/mL); against Pseudomonas aeruginosa it was 2.55 µM (≈ 6.25 µg/mL); in assay [2], 20.4 µM (≈ 49.9 µg/mL); in the assay on Enterococcus faecalis it was 1.28 µM (≈ 3.14 µg/mL). In addition, the MIC was found to be 5.09 µM (≈ 12.5 µg/mL) with Staphylococcus aureus [3]; 2.55 µM (≈ 6.25 µg/mL) in assay [4]; 1.28 µM (≈ 3.14 µg/mL) in the assay on Staphylococcus aureus [5]; 10.2 µM (≈ 25 µg/mL) in the assay with Streptococcus pneumoniae; 2.56 µM (≈ 6.28 µg/mL) against Neisseria gonorrhoeae; 2.56 µM (≈ 6.28 µg/mL) in [6]. The MIC in assay [7] is 40.8 µM (≈ 99.9 µg/mL); in assay [8], above 41 µM; in assay [9] it was above 41 µM; in assay [10], 40.8 µM (≈ 99.9 µg/mL). Besides, the IC50 was found to be 2.6 µM in the assay with CFPAC-1; 7 µM in the assay with MCF7; 6 µM in [11]; 6.6 µM in assay [12]; 6.4 µM in assay [13]; 6.4 µM in [14]. For the same compound, the IC50 is 5 µM in [15]; 5.6 µM in the assay with A498; 7.4 µM in assay [16]; 6.4 µM in the assay on A549; 2 µM with NCI-H69; 1.1 µM with RL.
